Laboratory results reported in patent US8497075B2, “Methods of identifying a modulator that inhibits the binding between Epstein-Barr virus induced receptor 2 and cholesterol derived ligands” (Novartis AG, priority 2008, dated 2013).

How the values were obtained:
hEBI2 [1] = molecular target: T1, hEBI2 (Homo sapiens, UniProt P32249); experiment: calcium fluorescence (FLIPR); format: cell-based; parameters: expressed in transfected cells; host or cells: CHO-K1 expressing apoaequorin (CHO-Aeq) with Gqi5; line E2
Experimental: If not stated otherwise compounds were dissolved at 10 mM in DMSO or ethanol (cholesterol, 25MDC). Serial dilutions were carried out in 90% DMSO (FLIPR, GTPgS) or assay buffer (binding assay). For cell based assays final DMSO concentrations is kept below 1%.
If not stated otherwise, the same Chinese hamster ovary (CHO) cell line called E2 which was used for the ligand identification was used in these experiments. This cell line is expressing (1) the recombinant human EBI2 receptor, (2) the promiscuous Gqi5 protein as well as (3) apo-aequorin.
Cells were seeded in black/clear bottom, poly-D-Lysine coated 384-well plates at a cell density of 10,000 cells/25 μL/well, using culture medium. Cells were cultured for 24 hours at 37° C./5% CO2. Culture medium was removed and for cell loading, 20 μl per well of loading buffer (Calcium-4 no wash dye) were distributed into the wells and the plates were incubated for 60 min at 37° C. in 5% CO2. With the FLIPR pipettor, 10 μl of the different compounds were added to the cells and the subsequent fluorescent changes monitored for 3 minutes. Using the FLIPR software tool, 2 values of fluorescence calcium responses were exported: Fmax, the fluorescence at the peak and Fbasal corresponding to the value prior to compound injection. From these two values, the calcium response is normalized with respect to the calcium baseline values using dF/F=(Fmax−Fbasal)/Fbasal. The maximum dF/F is called Emax.

hEBI2 [2] = molecular target: T1, hEBI2; experiment: GTPγS assay on EBI2 membranes; format: biochemical; parameters: expressed in transfected cells; host or cells: CHO-K1 expressing apoaequorin (CHO-Aeq) with Gqi5; line E2
Experimental: (§1) The cell suspension was then homogenized using a Dounce homogenizer (10 strokes) with a driller. After centrifugation at 110000×g for 45 minutes and removal of the supernatant, pellets were resuspended in sucrose buffer (50 mM Tris pH7.2, 250 mM sucrose, 10% glycerol) by vortexing. The suspension was again homogenize using a Dounce homogenizer (10 strokes) and spun at 100000×g for 45 minutes. The supernatant was discarded, the pellet resuspended in sucrose buffer, protein concentration determined, aliquoted and frozen at −80° C. These membrane preparations were used in binding as well as GTPgS assays.
Ten micrograms of EBI2 membranes are dissolved in 40 μl of buffer A (20 mM Hepes pH 7.4, 100 mM NaCl, 1.5 mM MgCl2, Saponin 10 μg/ml) supplemented with 10 μM GDP. After addition of […] scintilation proximity assay (SPA) beads (100 μg/well, Amersham, RPNQ0001) components are gently mixed and incubated at RT for 15 minutes. Twenty microliters of compound diluted in buffer A and 20 μl of GTPγ^35S (Perkin Elmer NEG030X) is added before incubation for one hour at RT. Plates are transferred and counted in a TopCount (Perkin Elmer NXT HTS™) and counts are analysed plotted and to determine half maximal concentrations of activation using standard software (Prism™, GraphPad Software Inc.).

hEBI2 [3] = molecular target: T1, hEBI2; experiment: [3H] 7a,25DHC radio-ligand binding assay (SPA), IC50 determination; parameters: expressed in transfected cells; host or cells: CHO-K1 expressing apoaequorin (CHO-Aeq) with Gqi5; line E2
Experimental: as §1
Lyophilized wheat germ agglutinin scintilation proximity assay (SPA) beads (RPNQ0001) were purchased from GE Healthcare (Buckinghamshire, UK). One vial (500 mg) is reconstituted by adding 5 mL of distilled water to give a final concentration of 100 mg/mL. Reconstituted SPA beads must be stored at 4° C., but must not be frozen. [3H]-7a,25-OHC, was synthesized by reduction of the 7-keto, 25DHC in the presence of 3H-L-selectride.
The SPA assay was performed in a final volume of 50 μl per well in a 384-well polystyrene Opti plate. The components were added into the wells as follows: • 10 μl tested compounds in 50 mM Tris; 100 mM NaCl; 5 mM MgCl2 and 0.1% Cyclodextrine.
Total binding was determined by the addition of 10 μl of 50 mM Tris; 100 mM NaCl; 5 mM MgCl2 and 0.1% Cyclodextrine and non-specific binding was determined by the addition of 10 μl NVP-BYX998-NX-4 (final concentration of 10 μM). • 20 μL of 10 nM final [3H]-BYX998 in assay buffer (50 mM Tris-HCl, 100 mM NaCl, 5 mM MgCl2 and 0.1% Cyclodextrine). • 20 μL of a mixed bead and membrane suspension in assay buffer, in order to get a final concentration of 20 μg membranes/well and 200 μg beads/well.
The plates were sealed and shaken at room temperature for 10 minutes then allowed to stand at room temperature for at least 12 hours. The plates were counted using a Perkin Elmer TopCount reader, each well being counted for 1 minute.
Each IC50 determination was performed with 11 concentrations.
A standard data reduction algorithm was used to calculate the percentage of specific binding in the presence of test compound as follows: ((B−NSB)/(Total−NSB))·100, where B=Binding in the presence of test compound (in cpm) NSB=Non-specific binding in the presence of excess inhibitor (in cpm) Total=Binding in the absence of test compound (in cpm) Curve fitting of the normalized concentration response curves using a four parameter logistic fit is then performed using XLfit (v.2 or v.4, IDBS, Guildford, UK). The equation used is XLfit equation no. […] By default, min is fixed at 0, whereas max is not fixed.

hEBI2 [4] = molecular target: T1, hEBI2; experiment: saturation binding, KD determination; parameters: expressed in transfected cells; host or cells: CHO-K1 expressing apoaequorin (CHO-Aeq) with Gqi5; line E2
Experimental: as §1, with “CHO cells stably expressing human EBI2 (E2) were grown in roller bottles (Corning #431191) to confluency, washed with phosphate buffered saline (PBS) once and frozen at −80° C. The frozen cell pellets were resuspended in ice-cold homogenization buffer (10 ml/gram, 20 mM Tris pH7.2) supplemented with a protease inhibitor cocktail (Complete™, Roche, #05 056 489 001-14302200). The cell” for “The cell”
These solutions were made in buffer containing 50 mM Tris; 100 mM NaCl; 5 mM MgCl2 and 0.1% Cyclodextrine.
[…] was measured in presence of a constant 7a,25DHC (NVP-BYX998-NX-4) concentration of 10 uM final and the corresponding total binding was measured with buffer instead of NVP-BYX998-NX-4. […]

RS11846 cells = experiment: chemotaxis 96 transwell assay; format: cell-based
Experimental: B cells (RS11846 or EBV-infected human B-cells) or murine bone marrow-derived dendritic cells were washed once with medium and resuspended at 1×10^6/ml. 100 μl of this suspension was added into the wells of the filter plate and gently placed into the receiver plate containing 150 μl of a given compound dilution. The final DMSO concentration was less then 0.1%. After migration for 3 hr at 37° C. in an incubator, the filter plate was carefully removed from the receiver plate and discarded. The migrated cells in the receiver plate were resuspended and transferred into round-bottom 96-well plate, centrifuged and resuspended in 100 μl PBS containing 2% FCS and 0.1% NaN3 (FACS buffer). The input cells (100 μl) were similarly processed. For the calculation of the specific migration, a fixed number of beads (10000; Invitrogen #PCB100)) in 20 μl FACS buffer was added and the suspension was analyzed by flow cytometry using a FACS instrument PAS™ (Partec). Cells were identified based on their forward scatter (FSC) and side scatter (SSC) pattern. Chemotaxis is expressed either as total cell number or as percent of input cells.

T1 sequence (P32249 whole entry): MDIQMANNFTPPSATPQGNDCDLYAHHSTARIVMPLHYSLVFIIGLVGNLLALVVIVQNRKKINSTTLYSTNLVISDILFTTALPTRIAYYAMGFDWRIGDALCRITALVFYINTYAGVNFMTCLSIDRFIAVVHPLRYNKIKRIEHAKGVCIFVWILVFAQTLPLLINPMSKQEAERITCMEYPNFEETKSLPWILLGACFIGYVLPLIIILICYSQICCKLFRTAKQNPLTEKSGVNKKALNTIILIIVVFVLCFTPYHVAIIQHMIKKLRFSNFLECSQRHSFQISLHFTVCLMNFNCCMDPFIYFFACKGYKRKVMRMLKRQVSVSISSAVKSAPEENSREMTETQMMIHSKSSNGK

## CC(CO)CCC[C@@H](C)[C@H]1CC[C@H]2[C@@H]3[C@@H](O)C=C4C[C@@H](O)CC[C@]4(C)[C@H]3CC[C@]12C (stereo partly drawn) [7b,27DHC, cholest-5-ene-3b,7b,27-triol]
hEBI2 [1]; n = 3-4, read-out: FLIPR EC50
  EC50: 310 nM
hEBI2 [2]; n = 3-4, read-out: GTPgS EC50
  EC50: 125 nM
hEBI2 [3]
  IC50: > 10000 nM

## C[C@H](CCCC(C)(C)O)[C@H]1CC[C@H]2[C@@H]3[C@@H](O)C=C4C[C@@H](O)CC[C@]4(C)[C@H]3CC[C@]12C [[^3H]-7b,25DHC]
hEBI2 [4]; data not shown
  specific binding to EBI2 membranes: not able to detect specific binding

## C[C@H](CCCC(C)(C)O)[C@H]1CC[C@H]2[C@@H]3[C@H](O)C=C4C[C@@H](O)CC[C@]4(C)[C@H]3CC[C@]12C [[^3H]-7a,25DHC]
hEBI2 [4]
  Kd: 25 nM

## C[C@H](CCCC(C)(C)O)[C@H]1CC[C@H]2[C@@H]3CC=C4C[C@@H](O)CC[C@]4(C)[C@H]3CC[C@]12C [25DHC, 25-hydroxycholesterol]
hEBI2 [1]
  EC50: 3030 nM
hEBI2 [2]
  EC50: 727 nM
hEBI2 [3]
  IC50: > 10000 nM

## pertussis toxin [reference compound]
RS11846 cells
  inhibition of 7a,25DHC-mediated chemotaxis of RS11846 cells: blocked
